Here are results for 20 compounds from PMC9490236, “Accurate de novo design of membrane-traversing macrocycles” (Cell, 2022).

The Papp is the rate of passage across a membrane or cell layer, normalised by area and donor concentration.

The structures appear in SMILES notation. Where a SMILES comes first, the peptide text is derived from it. [ ]: non-standard residue; d: D form. NMeF = CN[C@@H](Cc1ccccc1)C(=O)O; dNMeF = CN[C@H](Cc1ccccc1)C(=O)O; NMeL = CN[C@@H](CC(C)C)C(=O)O; dNMeL = CN[C@H](CC(C)C)C(=O)O; dNMeV = CN[C@@H](C(=O)O)C(C)C; NMeA = CN[C@@H](C)C(=O)O; dNMeA = CN[C@H](C)C(=O)O

For data set [1] the following is noted: PAMPA. A general note: The PAMPA barrier holds no transporters, so it reflects passive diffusion.
Data set [2] is described as follows: in vitro. To be noted: PAMPA, PAMPA_Papp_Avg.

In data set [1], `CC(C)C[C@H]1C(=O)N2CCC[C@@H]2C(=O)N[C@@H](Cc2ccccc2)C(=O)N2CCC[C@H]2C(=O)N(C)[C@H](C(C)C)C(=O)N[C@H](Cc2ccccc2)C(=O)N1C` [Design D6.10, *DVAL DPHE *LEU DPRO PHE PRO] (cyclo(FP[dNMeV][dF][NMeL][dP])) displayed a PAMPA_R1 of 1.23e-05 cm/s and a PAMPA_R3 of 1.13e-05 cm/s. In data set [2], the Papp turned out to be 11.6 ×10⁻⁶ cm/s.

On to `CC(C)C[C@@H]1NC(=O)[C@H](Cc2ccccc2)N(C)C(=O)[C@H]2CCCN2C(=O)[C@@H](CC(C)C)NC(=O)[C@@H](CC(C)C)NC(=O)[C@H](C)NC(=O)[C@H]2CCCN2C(=O)[C@@H]2CCCN2C(=O)[C@@H](C(C)C)NC1=O` [Design D9.32, DPRO ALA DLEU DLEU DPRO *PHE LEU DVAL PRO] (cyclo(A[dL][dL][dP][NMeF]L[dV]P[dP])), for which, in data set [1], the PAMPA_R1 amounted to 2.62E-07 and the PAMPA_R3 is on record as 2.67E-07. Also, the Papp in data set [2] is 0.24 ×10⁻⁶ cm/s.

As to `CC(C)C[C@H]1NC(=O)[C@@H]2CCCN2C(=O)[C@@H](C(C)C)NC(=O)[C@@H](C)N(C)C(=O)[C@@H](C(C)C)NC(=O)[C@@H]2CCCN2C(=O)[C@@H](Cc2ccccc2)NC(=O)[C@H](CC(C)C)N(C)C(=O)[C@@H](C(C)C)NC1=O` [Design D9.5, PRO DVAL *DALA DVAL PRO DLEU DVAL *LEU DPHE] (cyclo([NMeL][dF]P[dV][dNMeA][dV]P[dL][dV])), in data set [1], the PAMPA_R1 was 3.32E-06 and the PAMPA_R3 was determined as 4.42E-06. This compound displayed an apparent permeability (Papp) in data set [2] of 3.51 ×10⁻⁶ cm/s.

In data set [1], `CC(C)C[C@H]1NC(=O)[C@H](CC(C)C)N(C)C(=O)[C@@H](Cc2ccccc2)NC(=O)[C@@H](C)N(C)C(=O)[C@@H]2CCCN2C(=O)[C@H](C(C)C)NC(=O)[C@H](CC(C)C)N(C)C(=O)[C@@H](C)NC(=O)[C@@H]2CCCN2C(=O)[C@H]2CCCN2C1=O` [Design D10.32, PRO *DALA DPHE *LEU DLEU DPRO PRO DALA *LEU VAL] (cyclo([dA][NMeL]VP[dNMeA][dF][NMeL][dL][dP]P)) registered a PAMPA_R1 of 2.87E-06 and a PAMPA_R3 of 2.80E-06. For the same compound, the Papp in data set [2] came out at 3.18 ×10⁻⁶ cm/s.

In data set [1], `CC[C@@H](C)[C@H]1NC(=O)[C@H](CC(C)C)N(C)C(=O)[C@H]2CCCN2C(=O)[C@H](CC(C)C)NC(=O)[C@H](Cc2ccccc2)N(C)C(=O)CN(C)C(=O)[C@@H](C(C)C)NC(=O)[C@H](C)NC(=O)[C@H]2CCCN2C(=O)[C@@H]2CCCN2C1=O` (single isomer, unassigned) [Design D10.58.p1, *GLY *PHE LEU DPRO *LEU DILE PRO DPRO ALA DVAL] showed a PAMPA_R1 of 3.35E-07 and a PAMPA_R3 of 4.44E-07. The Papp in data set [2] was determined as 0.376 ×10⁻⁶ cm/s.

In data set [1], `CC(C)[C@@H]1NC(=O)[C@@H]2CCCN2C(=O)[C@@H]2CCCN2C(=O)[C@@H](Cc2ccccc2)NC(=O)[C@@H]2CCCN2C(=O)[C@@H](Cc2ccccc2)NC1=O` [Design D6.5, PRO PRO VAL DPHE PRO DPHE] (cyclo(PPV[dF]P[dF])) showed a PAMPA_R1 of 3.17e-06 cm/s and a PAMPA_R3 of 3.12e-06 cm/s. In data set [2], the Papp turned out to be 2.41 ×10⁻⁶ cm/s.

On to `CC[C@H](C)[C@@H]1NC(=O)[C@@H](CC(C)C)NC(=O)[C@@H]2CCCN2C(=O)[C@@H]2CCCN2C(=O)[C@@H](CC(C)C)NC(=O)[C@@H]2CCCN2C(=O)[C@H]2CCCN2C(=O)[C@@H](C(C)C)NC(=O)[C@@H](C)N(C)C1=O` [Design D9.14, PRO DLEU ILE *DALA DVAL DPRO PRO DLEU PRO] (cyclo([dL]PP[dL]I[dNMeA][dV][dP]P)), for which, in data set [1], the PAMPA_R1 amounted to 6.02E-07 and the PAMPA_R3 is 5.63E-07. In data set [2], this compound yielded a Papp of 0.584 ×10⁻⁶ cm/s.

As for `CC[C@H](C)[C@@H]1NC(=O)CNC(=O)[C@@H]2CCCN2C(=O)[C@H]2CCCN2C(=O)[C@H]([C@@H](C)CC)NC(=O)[C@@H](C)N(C)C(=O)[C@@H]2CCCN2C(=O)[C@H](C(C)C)NC(=O)[C@@H](CC(C)C)NC1=O` [Design D9.33, DPRO PRO GLY ILE DLEU VAL PRO *DALA ILE] (cyclo(GI[dL]VP[dNMeA]I[dP]P)), in data set [1], the PAMPA_R1 is recorded as 2.73E-07 and the PAMPA_R3 is 4.74E-07. In data set [2], the Papp is 0.317 ×10⁻⁶ cm/s.

On to `CC(C)[C@@H]1NC(=O)[C@H]2CCCN2C(=O)[C@@H](C(C)C)NC(=O)[C@@H]2CCCN2C(=O)[C@H](Cc2ccccc2)NC(=O)[C@H](Cc2ccccc2)NC(=O)[C@H]2CCCN2C(=O)[C@@H](C(C)C)NC(=O)[C@@H]2CCCN2C(=O)[C@H](C(C)C)NC1=O` [Design D10.27, PRO DVAL DPRO VAL VAL PRO DVAL DPRO PHE PHE] (cyclo(FFP[dV][dP]VVP[dV][dP])), for which, in data set [1], the PAMPA_R1 is listed as 5.18E-07 and the PAMPA_R3 is 5.10E-07. Also, in data set [2], the Papp came out at 0.49 ×10⁻⁶ cm/s.

On to `CC[C@@H](C)[C@H]1NC(=O)[C@@H]2CCCN2C(=O)[C@@H](CC(C)C)N(C)C(=O)[C@@H](C(C)C)NC(=O)[C@@H]2CCCN2C(=O)[C@@H](CC(C)C)N(C)C(=O)[C@H](C)N(C)C(=O)[C@@H](C)NC1=O` [Design D8.18, DILE DALA *ALA *DLEU PRO DVAL *DLEU PRO] (cyclo([NMeA][dNMeL]P[dV][dNMeL]P[dI][dA])), for which, in data set [1], the PAMPA_R1 worked out at 1.31E-06 and the PAMPA_R3 came out at 9.35E-07. The compound further yielded a Papp in data set [2] of 1.04 ×10⁻⁶ cm/s.

With `CC(C)C[C@@H]1NC(=O)[C@@H](CC(C)C)NC(=O)[C@H]2CCCN2C(=O)[C@@H]2CCCN2C(=O)[C@@H](CC(C)C)NC(=O)[C@@H](CC(C)C)N(C)C(=O)[C@@H]2CCCN2C1=O` [Design D7.5, LEU PRO *DLEU DLEU PRO DPRO DLEU] (cyclo(LP[dNMeL][dL]P[dP][dL])), in data set [1], the PAMPA_R1 was determined as 6.72e-06 cm/s. This compound also displayed a Papp in data set [2] of 6.64 ×10⁻⁶ cm/s.

For `CC[C@@H](C)[C@H]1NC(=O)[C@H](C(C)C)NC(=O)[C@H]2CCCN2C(=O)[C@@H]2CCCN2C(=O)[C@H](CC(C)C)N(C)C(=O)[C@H](C)N(C)C(=O)[C@@H](CC(C)C)N(C)C(=O)[C@H](C)NC(=O)[C@@H](Cc2ccccc2)NC(=O)[C@@H]2CCCN2C1=O` [Design D10.25, DPHE ALA *DLEU *ALA *LEU PRO DPRO VAL DILE PRO] (cyclo(A[dNMeL][NMeA][NMeL]P[dP]V[dI]P[dF])), in data set [1], the PAMPA_R1 was found to be 3.97E-07 and the PAMPA_R3 is on record as 4.39E-07. Moreover, in data set [2], the Papp was found to be 0.452 ×10⁻⁶ cm/s.

On to `CC[C@H](C)[C@@H]1NC(=O)[C@@H](CC(C)C)N(C)C(=O)[C@H](CC(C)C)N(C)C(=O)[C@H](C)NC(=O)[C@H]2CCCN2C(=O)[C@@H]2CCCN2C(=O)[C@@H]2CCCN2C(=O)[C@@H](C(C)C)NC1=O` [Design D8.28, PRO DPRO ALA *LEU *DLEU ILE DVAL PRO] (cyclo(A[NMeL][dNMeL]I[dV]PP[dP])), for which, in data set [1], the PAMPA_R1 stood at 1.45E-06 and the PAMPA_R3 is reported as 7.65E-07. The same compound gave a Papp in data set [2] of 1.14 ×10⁻⁶ cm/s.

In data set [1], `CC(C)C[C@@H]1C(=O)N(C)[C@H](Cc2ccccc2)C(=O)N(C)[C@@H](CC(C)C)C(=O)N[C@H](C(C)C)C(=O)N[C@H](C)C(=O)N2CCC[C@@H]2C(=O)N2CCC[C@H]2C(=O)N[C@H](C)C(=O)N1C` [Design D8.20, PRO DALA *DLEU *DPHE *LEU DVAL DALA DPRO] (cyclo([dA][dNMeL][dNMeF][NMeL][dV][dA][dP]P)) came in with a PAMPA_R1 of 1.00E-06 and a PAMPA_R3 of 1.46E-06. Further, the Papp in data set [2] came to 1.08 ×10⁻⁶ cm/s.

Turning to `CC[C@@H](C)[C@H]1NC(=O)[C@@H](Cc2ccccc2)NC(=O)[C@@H]2CCCN2C(=O)[C@@H]([C@H](C)CC)NC(=O)[C@@H](Cc2ccccc2)NC(=O)[C@@H]2CCCN2C1=O` [Design D6.1, DILE PRO DPHE DILE PRO DPHE] (cyclo(P[dF][dI]P[dF][dI])), in data set [1], the PAMPA_R1 was 3.78e-06 cm/s and the PAMPA_R3 was 3.92e-06 cm/s. In data set [2], this compound came in with a Papp of 3.34 ×10⁻⁶ cm/s.

For the compound `CC(C)C[C@@H]1NC(=O)[C@@H](C)NC(=O)[C@H]2CCCN2C(=O)[C@@H]2CCCN2C(=O)[C@@H](C(C)C)NC(=O)[C@@H](CC(C)C)N(C)C(=O)[C@H]2CCCN2C(=O)[C@H]2CCCN2C(=O)[C@@H](C)N(C)C(=O)[C@H](CC(C)C)N(C)C(=O)[C@@H](Cc2ccccc2)NC1=O` [Design D11.16, LEU DPHE *LEU *DALA DPRO DPRO *DLEU DVAL PRO DPRO DALA] (cyclo(L[dF][NMeL][dNMeA][dP][dP][dNMeL][dV]P[dP][dA])), in data set [1], the PAMPA_R1 is 3.70E-07 and the PAMPA_R3 turned out to be 4.55E-07. Besides, the Papp in data set [2] is 0.43 ×10⁻⁶ cm/s.

For the compound `CC(C)[C@@H]1C(=O)N[C@@H](Cc2ccccc2)C(=O)N2CCC[C@H]2C(=O)N(C)[C@H](Cc2ccccc2)C(=O)N[C@H](C)C(=O)N2CCC[C@H]2C(=O)N1C` (single isomer, unassigned) [Design D6.8.p1, *DPHE DALA PRO *DVAL PHE PRO], in data set [1], the PAMPA_R1 is 4.07e-06 cm/s and the PAMPA_R3 came to 3.58e-06 cm/s. The Papp in data set [2] is 3.47 ×10⁻⁶ cm/s.

In the case of `CC(C)C[C@@H]1NC(=O)[C@@H](CC(C)C)NC(=O)[C@@H]2CCCN2C(=O)[C@@H](CC(C)C)NC(=O)[C@H](C)N(C)C(=O)[C@H](C)NC(=O)[C@H](CC(C)C)N(C)C(=O)[C@@H]2CCCN2C(=O)[C@H](CC(C)C)NC(=O)[C@H](CC(C)C)N(C)C1=O` [Design D10.16, DLEU LEU *LEU LEU PRO *LEU ALA *ALA DLEU PRO] (cyclo(A[NMeA][dL]P[dL]L[NMeL]LP[NMeL])), in data set [1], the PAMPA_R1 came out at 2.30E-06 and the PAMPA_R3 is reported as 2.32E-06. This compound returned a Papp in data set [2] of 2.27 ×10⁻⁶ cm/s.

On to `CC(C)C[C@@H]1NC(=O)[C@@H](CC(C)C)N(C)C(=O)[C@@H](CC(C)C)N(C)C(=O)[C@@H](CC(C)C)N(C)C(=O)[C@H](CC(C)C)NC(=O)[C@@H]2CCCN2C(=O)[C@H]2CCCN2C(=O)[C@H](Cc2ccccc2)NC1=O` [Design D8.7, PHE DPRO PRO LEU *DLEU *DLEU *DLEU LEU] (cyclo(L[dNMeL][dNMeL][dNMeL]LF[dP]P)), for which, in data set [1], the PAMPA_R1 is reported as 1.94E-06 and the PAMPA_R3 turned out to be 8.74E-07. This compound also came in with an apparent permeability (Papp) in data set [2] of 1.27 ×10⁻⁶ cm/s.

In data set [1], `CC(C)C[C@@H]1NC(=O)[C@@H]2CCCN2C(=O)[C@H]2CCCN2C(=O)[C@@H](C)N(C)C(=O)[C@@H](CC(C)C)N(C)C(=O)[C@H](C(C)C)NC(=O)[C@@H](C)N(C)C(=O)[C@H]2CCCN2C(=O)[C@@H]2CCCN2C1=O` [Design D9.22, DPRO *DALA VAL *DLEU *DALA DPRO PRO LEU PRO] (cyclo(LP[dP][dNMeA]V[dNMeL][dNMeA][dP]P)) returned a PAMPA_R1 of 1.87E-07 and a PAMPA_R3 of 1.82E-07. In addition, in data set [2], the Papp was 0.189 ×10⁻⁶ cm/s.
